From patent US20220395472A1 (Dermavant Sciences GmbH, priority 2021, published 2022)

Tested on: adults with plaque psoriasis
Test: Long-term extension study (PSOARING 3): PASI score, PASI75, PASI90
Type: in vivo, human
Description: The PASI scoring system is a widely used, standard, clinical tool for assessing the severity of psoriasis that takes into account the overall severity of erythema (redness), induration (plaque thickness), scale, and the extent of % BSA affected with psoriasis. The 3 clinical signs are each graded on a 5 point scale (0 to 4) and the % BSA affected is scored on a 7 point scale (0 to 6) for each of the 4 specified body regions (head, upper extremities, trunk, and lower extremities). Individual scores are multiplied by a weighted factor for each body region; the sum of these scores gives the overall PASI score. Higher scores indicate more severe disease. PASI is a static assessment made without reference to previous scores. Details on PASI calculation can be found in Appendix 2 of the protocol.

[1] = Week 16, LOCF, Tapinarof (Pivotal) group
[2] = Week 16, LOCF, Vehicle (Pivotal) group
[3] = Week 16, OC, Tapinarof (Pivotal) group
[4] = Week 16, OC, Vehicle (Pivotal) group
[5] = Week 16, Observed Cases, Overall
[6] = Week 16, Observed Cases, Tapinarof (Pivotal) group
[7] = Week 16, Observed Cases, Vehicle (Pivotal) group
[8] = Week 40, LOCF, Tapinarof (Pivotal) group
[9] = Week 40, LOCF, Vehicle (Pivotal) group
[10] = Week 40, OC, Tapinarof (Pivotal) group
[11] = Week 40, OC, Vehicle (Pivotal) group
[12] = Week 40, Observed Cases, Tapinarof (Pivotal) group
[13] = Week 40, Observed Cases, Vehicle (Pivotal) group

SMILES: CC(C)c1c(O)cc(/C=C/c2ccccc2)cc1O [Tapinarof, 3,5-Dihydroxy-4-isopropyl-trans-stilbene]
- PASI75 Responder (Week 16, LOCF, Overall, listed as tapinarof): 21.3%
- PASI75 Non-Responder [1]: 413/491 (84.1) %
- PASI75 Responder [1]: 78/491 (15.9) %
- Subjects with reduction of ≥90% from Baseline in PASI (PASI90) [1]: 13.0%
- mean (SD) PASI score [1]: 2.74 (3.324)
- PASI75 Responder (Week 16, LOCF, Tapinarof (Pivotal) group, listed as tapinarof): 15.9%
- PASI75 Non-Responder [2]: 170/250 (68.0) %
- PASI75 Responder [2]: 80/250 (32.0) %
- Subjects with reduction of ≥90% from Baseline in PASI (PASI90) [2]: 15.2%
- mean (SD) PASI score [2]: 3.47 (3.794)
- PASI75 Responder (Week 16, LOCF, Vehicle (Pivotal) group, listed as tapinarof): 32.0%
- Subjects with reduction of ≥90% from Baseline in PASI (PASI90) [3]: 13.6%
- mean (SD) PASI score [3]: 2.38 (2.652)
- Subjects with reduction of ≥90% from Baseline in PASI (PASI90) [4]: 15.9%
- mean (SD) PASI score [4]: 2.95 (3.020)
- PASI75 Non-Responder [5]: 478/619 (77.2) %
- PASI75 Responder [5]: 141/619 (22.8) %
- PASI75 Responder (Week 16, Observed Cases, Overall, listed as tapinarof): 22.8%
- PASI75 Non-Responder [6]: 342/412 (83.0) %
- PASI75 Responder [6]: 70/412 (17.0) %
- PASI75 Responder (Week 16, Observed Cases, Tapinarof (Pivotal) group, listed as tapinarof): 17.0%
- PASI75 Non-Responder [7]: 136/207 (65.7) %
- PASI75 Responder [7]: 71/207 (34.3) %
- PASI75 Responder (Week 16, Observed Cases, Vehicle (Pivotal) group, listed as tapinarof): 34.3%
- PASI75 Non-Responder (Week 16 LOCF, Overall): 583/741 (78.7) %
- PASI75 Responder (Week 16 LOCF, Overall): 158/741 (21.3) %
- Subjects with reduction of ≥90% from Baseline in PASI (PASI90) (Week 16 LOCF, Overall): 13.8%
- mean (SD) PASI score (Week 16 LOCF, Overall): 2.99 (3.504)
- Subjects with reduction of ≥90% from Baseline in PASI (PASI90) (Week 16 OC, Overall): 14.4%
- mean (SD) PASI score (Week 16 OC, Overall): 2.57 (2.791)
- PASI75 Responder (Week 40, LOCF, Overall, listed as tapinarof): 25.3%
- PASI75 Non-Responder [8]: 409/492 (83.1) %
- Subjects with reduction of ≥90% from Baseline in PASI (PASI90) [8]: 11.2%
- mean (SD) PASI score [8]: 2.80 (3.443)
- PASI75 Responder (Week 40, LOCF, Tapinarof (Pivotal) group, listed as tapinarof): 16.9%
- PASI75 Non-Responder [9]: 146/251 (58.2) %
- PASI75 Responder [9]: 105/251 (41.8) %
- Subjects with reduction of ≥90% from Baseline in PASI (PASI90) [9]: 20.7%
- mean (SD) PASI score [9]: 3.28 (3.937)
- PASI75 Responder (Week 40, LOCF, Vehicle (Pivotal) group, listed as tapinarof): 41.8%
- Subjects with reduction of ≥90% from Baseline in PASI (PASI90) [10]: 13.1%
- mean (SD) PASI score [10]: 2.38 (2.672)
- Subjects with reduction of ≥90% from Baseline in PASI (PASI90) [11]: 27.4%
- mean (SD) PASI score [11]: 2.31 (3.008)
- PASI75 Responder (Week 40, Observed Cases, Overall): 30.9%
- PASI75 Non-Responder [12]: 186/236 (78.8) %
- PASI75 Responder [12]: 50/236 (21.2) %
- PASI75 Responder (Week 40, Observed Cases, Tapinarof (Pivotal) group, listed as tapinarof): 21.2%
- PASI75 Non-Responder [13]: 55/113 (48.7) %
- PASI75 Responder [13]: 58/113 (51.3) %
